Measured values: ChEMBL document CHEMBL4007391, “Tackling Fungal Resistance by Biofilm Inhibitors” (J Med Chem, 2017)

Test system: Candida albicans
Experiment: Disruption of biofilm of Candida albicans DAY185 assessed as death of biofilm hyphae after 24 hrs by XTT assay
Format: functional

For `C=C(C)[C@H](CC=C(C)C)C[C@]12C[C@H](CC=C(C)C)C(C)(C)[C@](CC=C(C)C)(C(=O)C(C(=O)c3ccc(O)c(O)c3)=C1O)C2=O`, the EC50 was 30 to 50 µM.
